In publication PMC6753678, “Fueling Open Innovation for Malaria Transmission-Blocking Drugs: Hundreds of Molecules Targeting Early Parasite Mosquito Stages” (Frontiers in Microbiology, 2019):
Read-outs that look alike come from different tables or passages of the source.

Experiments:
[1] = system: P. falciparum female gametocytes; parameters: method as in Miguel-Blanco et al 2017; settings: ref Miguel-Blanco et al 2017, read-out: Pf FGAA IC50, cited from earlier work
[2] = system: P. falciparum female gametocytes; test: P. falciparum female gametogenesis assay (Pf FGAA); settings: 1: YES, 0: NO
HepG2 cells = settings: ref Miguel-Blanco et al 2017, cited from earlier work; for HepG2 cytoxicity (Pf FGAA screen): HepG2 value reported with Pf FGAA screen

| Compound | IC50 ([1]; TCAMS library screen) | Is compound selective in assay? Pf FGAA active? [2] | HepG2 cytoxicity (Pf FGAA screen) (HepG2 cells) | IC50 [1] | Is compound selective in assay? Pf FGAA active? ([2]; >10-fold selectivity over cytotox) | HepG2 cytoxicity (HepG2 cells; HepG2 value reported with the Pf FGAA screen) |
| --- | --- | --- | --- | --- | --- | --- |
| CCn1c(-c2nonc2N)nc2c(-c3cccc(NC(=O)Nc4ccc5c(c4)CCC5)c3)ncc(OCCCN)c21.O=C(O)C(F)(F)F [TCMDC-136191] | 1.03 µM | 0 (0: NO) | 7.42 µM | – | – | – |
| CCn1c(-c2nonc2N)nc2c(-c3cccc(NC(=O)NC45CC6CC(CC(C6)C4)C5)c3)ncc(OCCCN)c21.O=C(O)C(F)(F)F [TCMDC-136246] | 1.36 µM | 0 (0: NO) | 6.10 µM | – | – | – |
| CN(C)CCCNCc1cn(S(=O)(=O)c2ccccc2Cl)c2ccccc12.Cl [TCMDC-136302] | 1.84 µM | 0 (0: NO) | 11.78 µM | – | – | – |
| Cc1noc(C)c1-c1ccc2c(Nc3nccc4ccccc34)c(C(N)=O)cnc2c1 [TCMDC-136456] | 1.54 µM | 0 (0: NO) | 3.85 µM | – | – | – |
| Cc1cc(C(F)(F)F)cc(-n2ncc(-c3ccc(C(=O)NCc4ccccc4N)cc3)c2N)n1.O=C(O)C(F)(F)F [TCMDC-136658] | 1.46 µM | 1 (1: YES) | 26.82 µM | – | – | – |
| CN1CCN(Cc2ccc(OCc3cccc(COc4ccc(CN5CCN(C)CC5)cc4I)c3)c(I)c2)CC1.Cl [TCMDC-137239] | 1.85 µM | 0 (0: NO) | 5.01 µM | – | – | – |
| CCCCN(CCCC)CCCCNc1c2ccc(Cl)cc2nc2ccc(OC)cc12.Cl [TCMDC-137460] | 1.97 µM | 0 (0: NO) | 4.73 µM | – | – | – |
| COc1cc(CNCCCCCCNCc2cc(OC)c3ccccc3c2OC)c(OC)c2ccccc12.CS(=O)(=O)O [TCMDC-137502] | 1.67 µM | 0 (0: NO) | 3.67 µM | – | – | – |
| Clc1ccc(/N=C(/NCCCCCCCN/C(=N\c2ccc(Cl)cc2)Nc2ccc(Cl)cc2)Nc2ccc(Cl)cc2)cc1 [TCMDC-137529] | 0.58 µM | 0 (0: NO) | 2.00 µM | – | – | – |
| CC(CO)(CO)NCc1cc2c3ccccc3c(CNC(C)(CO)CO)cc2c2ccccc12.CS(=O)(=O)O [TCMDC-137752] | 4.42 µM | 0 (0: NO) | 7.33 µM | – | – | – |
| Clc1ccc(Nc2nc3ccc(Cl)cc3nc2Nc2ccc(Cl)cc2)cc1 [TCMDC-137772] | 1.91 µM | 0 (0: NO) | 7.86 µM | – | – | – |
| Clc1nc(Cl)c2c(ccn2Cc2ccccc2)n1 [TCMDC-137801] | 1.46 µM | 1 (1: YES) | >100 µM | – | – | – |
| CCCCSc1c(CNCCCCCCNCc2ccc3ccccc3c2SCCCC)ccc2ccccc12.CS(=O)(=O)O [TCMDC-137825] | 0.97 µM | 0 (0: NO) | 2.76 µM | – | – | – |
| COc1c(CNCCCCCCNCc2c(OC)c(OC)c3ccccc3c2OC)c(OC)c2ccccc2c1OC.CS(=O)(=O)O [TCMDC-137837] | 3.69 µM | 0 (0: NO) | 4.42 µM | – | – | – |
| Nc1nc(N)c2c(ccc3[nH]c(-c4ccccc4Cl)nc32)n1 [TCMDC-137840] | 4.42 µM | 0 (0: NO) | 2.32 µM | – | – | – |
| CCOc1cc2ccccc2cc1CNCCCCCCNCc1cc2ccccc2cc1OCC.CS(=O)(=O)O [TCMDC-137940] | 1.29 µM | 0 (0: NO) | 6.06 µM | – | – | – |
| COc1cc2c(OC)cccc2cc1CNCCCCCCNCc1cc2cccc(OC)c2cc1OC.CS(=O)(=O)O [TCMDC-137945] | 1.82 µM | 0 (0: NO) | 4.90 µM | – | – | – |

| Compound | IC50 ([1]; TCAMS library screen) | Is compound selective in assay? Pf FGAA active? [2] | HepG2 cytoxicity (Pf FGAA screen) (HepG2 cells) | IC50 [1] | Is compound selective in assay? Pf FGAA active? ([2]; >10-fold selectivity over cytotox) | HepG2 cytoxicity (HepG2 cells; HepG2 value reported with the Pf FGAA screen) |
| --- | --- | --- | --- | --- | --- | --- |
| CCCOc1c(CCNCCCCNCCc2ccc3ccccc3c2OCCC)ccc2ccccc12.CS(=O)(=O)O [TCMDC-137950] | 0.64 µM | 0 (0: NO) | 1.72 µM | – | – | – |
| COc1c(CNCCCCCCNCc2cc(Cl)c3ccccc3c2OC)cc(Cl)c2ccccc12.CS(=O)(=O)O [TCMDC-137958] | 1.18 µM | 0 (0: NO) | 4.62 µM | – | – | – |
| COc1ccc(CCNCCCCNCCc2ccc(OC)c3ccccc23)c2ccccc12.CS(=O)(=O)O [TCMDC-137961] | 0.48 µM | 0 (0: NO) | 2.14 µM | – | – | – |
| CCCCOc1c(CNCCCCCCNCc2ccc3ccccc3c2OCCCC)ccc2ccccc12.CS(=O)(=O)O [TCMDC-137975] | 1.49 µM | 0 (0: NO) | 2.21 µM | – | – | – |
| COc1ccccc1-c1nc2c(ccc3nc(N)nc(N)c32)[nH]1 [TCMDC-137976] | 1.13 µM | 0 (0: NO) | 2.87 µM | – | – | – |
| CCCN(CCC)CCCN(CCCN(CCC)CCC)c1cc(C)nc(Nc2ccc3cc(Br)ccc3c2)n1.Cl [TCMDC-138006] | 0.99 µM | 0 (0: NO) | 3.43 µM | – | – | – |
| Cl.Clc1ccc(CNCCCCCCCNCc2ccc(Cl)c(Cl)c2)cc1Cl [TCMDC-138075] | 0.7 µM | 0 (0: NO) | 4.57 µM | – | – | – |
| COc1cc2nc(N3CCC(CNC(=O)c4ccc(-c5ccc(-c6noc(C)n6)cc5C)cc4)CC3)nc(N)c2cc1OC [TCMDC-138155] | 1.68 µM | 0 (0: NO) | 7.62 µM | – | – | – |
| COc1ccc(N2CCN(CCCCNCc3ccc(NC(=O)c4cc(Cl)cc(Cl)c4)cc3)CC2)c(OC)c1 [TCMDC-138226] | 3.11 µM | 0 (0: NO) | 4.42 µM | – | – | – |
| COc1cc2nc(Nc3ccc4c(ccn4Cc4ccccc4)c3)nc(Nc3ccc4c(ccn4Cc4ccccc4)c3)c2cc1OC [TCMDC-138237] | 1.58 µM | 0 (0: NO) | 14.13 µM | – | – | – |
| CN(C)CCNCc1ccc(-c2ccc3c(Nc4ccc(Cl)cc4F)ccnc3c2)o1 [TCMDC-138391] | 1.71 µM | 0 (0: NO) | 0.89 µM | – | – | – |
| Fc1cc(Cl)ccc1Nc1ccnc2cc(-c3ccc(CN4CCOCC4)o3)ccc12 [TCMDC-138393] | 0.64 µM | 0 (0: NO) | 5.62 µM | – | – | – |
| Cl.Fc1cc(Cl)ccc1Nc1ccnc2cc(-c3ccc(CN4CCNCC4)o3)ccc12 [TCMDC-138394] | 1.91 µM | 0 (0: NO) | 12.05 µM | – | – | – |
| CN(C)CCN(C)Cc1ccc(-c2ccc3c(Nc4ccc(Oc5ccccn5)cc4)ccnc3c2)o1 [TCMDC-138426] | 2.05 µM | 0 (0: NO) | 5.37 µM | – | – | – |
| CN(/N=C/C=C/c1ccc(Cl)cc1)c1nc(NCCc2ccc(O)cc2)nc(N2CCNCC2)n1 [TCMDC-138546] | 1.96 µM | 0 (0: NO) | 13.18 µM | – | – | – |
| O=c1c(NCCCN(Cc2ccc(F)cc2)c2ccccn2)c(NCc2cccnc2)c1=O [TCMDC-142311] | – | – | – | 0.36 µM | 1 (1: YES) | >100 µM |
